In PubChem BioAssay (NCI):
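Briefly, cells in 96-well plates were exposed to five compound concentrations for 48 h, and endpoints were estimated by linear interpolation. The concentration for 50% growth inhibition is given as GI50. At the TGI there is no net growth.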

Key:
Assay in all cases: DTP human tumour cell line panel, 48 h
SF-539 CNS = tested on: SF-539 CNS
SNB-19 CNS = tested on: SNB-19 CNS
ACHN renal = tested on: ACHN renal
OVCAR-8 ovarian = tested on: OVCAR-8 ovarian
HCC-2998 colon = tested on: HCC-2998 colon
BT-549 breast = tested on: BT-549 breast
NCI-H226 lung = tested on: NCI-H226 lung
SNB-75 CNS = tested on: SNB-75 CNS
SK-MEL-2 melanoma = tested on: SK-MEL-2 melanoma
LOX IMVI melanoma = tested on: LOX IMVI melanoma
MDA-MB-435 = tested on: MDA-MB-435
NCI-H23 lung = tested on: NCI-H23 lung
NCI-H460 lung = tested on: NCI-H460 lung
MOLT-4 leukemia = tested on: MOLT-4 leukemia
SN12C renal = tested on: SN12C renal
SK-MEL-28 melanoma = tested on: SK-MEL-28 melanoma
TK-10 renal = tested on: TK-10 renal
UACC-62 melanoma = tested on: UACC-62 melanoma
786-0 renal = tested on: 786-0 renal
MCF7 breast = tested on: MCF7 breast
HCT-116 colon = tested on: HCT-116 colon
IGROV1 ovarian = tested on: IGROV1 ovarian
PC-3 prostate = tested on: PC-3 prostate
MDA-MB-231 breast = tested on: MDA-MB-231 breast
SW-620 colon = tested on: SW-620 colon
HL-60(TB) leukemia = tested on: HL-60(TB) leukemia
RPMI-8226 leukemia = tested on: RPMI-8226 leukemia
KM12 colon = tested on: KM12 colon
UO-31 renal = tested on: UO-31 renal
HS 578T breast = tested on: HS 578T breast
DU-145 prostate = tested on: DU-145 prostate
CCRF-CEM leukemia = tested on: CCRF-CEM leukemia
NCI-H522 lung = tested on: NCI-H522 lung
MALME-3M melanoma = tested on: MALME-3M melanoma
SF-268 CNS = tested on: SF-268 CNS
A549 NSCLC = tested on: A549 NSCLC
NCI/ADR-RES ovarian = tested on: NCI/ADR-RES ovarian
K-562 leukemia = tested on: K-562 leukemia
HOP-62 NSCLC = tested on: HOP-62 NSCLC
U251 CNS = tested on: U251 CNS
SR leukemia = tested on: SR leukemia
UACC-257 melanoma = tested on: UACC-257 melanoma
OVCAR-5 ovarian = tested on: OVCAR-5 ovarian
T-47D breast = tested on: T-47D breast
M14 melanoma = tested on: M14 melanoma
SK-MEL-5 melanoma = tested on: SK-MEL-5 melanoma
HT29 colon = tested on: HT29 colon
CAKI-1 renal = tested on: CAKI-1 renal
OVCAR-3 ovarian = tested on: OVCAR-3 ovarian
SF-295 CNS = tested on: SF-295 CNS
HCT-15 colon = tested on: HCT-15 colon
HOP-92 NSCLC = tested on: HOP-92 NSCLC
COLO 205 colon = tested on: COLO 205 colon
SK-OV-3 ovarian = tested on: SK-OV-3 ovarian
OVCAR-4 ovarian = tested on: OVCAR-4 ovarian
A498 renal = tested on: A498 renal

CCC(O)c1ccc(Br)cc1NC(=O)c1cccc(Cl)c1 (configuration not stated)
GI50 (SF-539 CNS): 31.8 µM | TGI (SF-539 CNS): > 100 µM | GI50 (SNB-19 CNS): 37.4 µM | TGI (SNB-19 CNS): > 100 µM | GI50 (ACHN renal): 23.1 µM | TGI (ACHN renal): > 100 µM | GI50 (OVCAR-8 ovarian): 23.7 µM | TGI (OVCAR-8 ovarian): 77.9 µM | GI50 (HCC-2998 colon): 20.5 µM | TGI (HCC-2998 colon): 45.4 µM | GI50 (BT-549 breast): 23.7 µM | TGI (BT-549 breast): 74.3 µM | GI50 (NCI-H226 lung): 21.5 µM | TGI (NCI-H226 lung): 64.6 µM | GI50 (SNB-75 CNS): 10.8 µM | TGI (SNB-75 CNS): > 100 µM | GI50 (SK-MEL-2 melanoma): 28.1 µM | TGI (SK-MEL-2 melanoma): 82.4 µM | GI50 (LOX IMVI melanoma): 9.03 µM | TGI (LOX IMVI melanoma): 25 µM | GI50 (MDA-MB-435): 16.9 µM | TGI (MDA-MB-435): 35 µM | GI50 (NCI-H23 lung): 22.4 µM | TGI (NCI-H23 lung): 86.6 µM | GI50 (NCI-H460 lung): 21.9 µM | TGI (NCI-H460 lung): 78.5 µM | GI50 (MOLT-4 leukemia): 15.9 µM | TGI (MOLT-4 leukemia): 45.5 µM | GI50 (SN12C renal): 24.4 µM | TGI (SN12C renal): > 100 µM | GI50 (SK-MEL-28 melanoma): 23.9 µM | TGI (SK-MEL-28 melanoma): 64.8 µM | GI50 (TK-10 renal): 41.7 µM | TGI (TK-10 renal): > 100 µM | GI50 (UACC-62 melanoma): 12.5 µM | TGI (UACC-62 melanoma): > 100 µM | GI50 (786-0 renal): 33.1 µM | TGI (786-0 renal): > 100 µM | GI50 (MCF7 breast): 12 µM | TGI (MCF7 breast): 96 µM | GI50 (HCT-116 colon): 14.2 µM | TGI (HCT-116 colon): 46.6 µM | GI50 (IGROV1 ovarian): 17.2 µM | TGI (IGROV1 ovarian): 92.6 µM | GI50 (PC-3 prostate): 12.5 µM | TGI (PC-3 prostate): 53.4 µM | GI50 (MDA-MB-231 breast): 18.8 µM | TGI (MDA-MB-231 breast): > 100 µM | GI50 (SW-620 colon): 26.6 µM | TGI (SW-620 colon): 99.6 µM | GI50 (HL-60(TB) leukemia): 22.3 µM | TGI (HL-60(TB) leukemia): 60.1 µM | GI50 (RPMI-8226 leukemia): 11.4 µM | TGI (RPMI-8226 leukemia): 48.3 µM | GI50 (KM12 colon): 13 µM | TGI (KM12 colon): 29.6 µM | GI50 (UO-31 renal): 10.8 µM | TGI (UO-31 renal): > 100 µM | GI50 (HS 578T breast): 24.6 µM | TGI (HS 578T breast): > 100 µM | GI50 (DU-145 prostate): 34.5 µM | TGI (DU-145 prostate): > 100 µM | GI50 (CCRF-CEM leukemia): 20.5 µM | TGI (CCRF-CEM leukemia): 58.9 µM | GI50 (NCI-H522 lung): 19.8 µM | TGI (NCI-H522 lung): 81 µM | GI50 (MALME-3M melanoma): 36.6 µM | TGI (MALME-3M melanoma): > 100 µM | GI50 (SF-268 CNS): 26.2 µM | TGI (SF-268 CNS): 93.2 µM | GI50 (A549 NSCLC): 19.5 µM | TGI (A549 NSCLC): > 100 µM | GI50 (NCI/ADR-RES ovarian): 23.4 µM | TGI (NCI/ADR-RES ovarian): > 100 µM | GI50 (K-562 leukemia): 15.6 µM | TGI (K-562 leukemia): > 100 µM | GI50 (HOP-62 NSCLC): 20 µM | TGI (HOP-62 NSCLC): 44.6 µM | GI50 (U251 CNS): 14.1 µM | TGI (U251 CNS): 31.8 µM | GI50 (SR leukemia): 24 µM | TGI (SR leukemia): 70.5 µM | GI50 (UACC-257 melanoma): 18.4 µM | TGI (UACC-257 melanoma): 35.1 µM | GI50 (OVCAR-5 ovarian): 32.3 µM | TGI (OVCAR-5 ovarian): > 100 µM | GI50 (T-47D breast): 12.7 µM | TGI (T-47D breast): 84.8 µM | GI50 (M14 melanoma): 21.3 µM | TGI (M14 melanoma): 52.3 µM | GI50 (SK-MEL-5 melanoma): 14.5 µM | TGI (SK-MEL-5 melanoma): 28.2 µM | GI50 (HT29 colon): 17.9 µM | TGI (HT29 colon): 37.2 µM | GI50 (CAKI-1 renal): 10.2 µM | TGI (CAKI-1 renal): 51.4 µM | GI50 (OVCAR-3 ovarian): 20.3 µM | TGI (OVCAR-3 ovarian): 71.1 µM | GI50 (SF-295 CNS): 15 µM | TGI (SF-295 CNS): 35.1 µM | GI50 (HCT-15 colon): 23.1 µM | TGI (HCT-15 colon): > 100 µM | GI50 (HOP-92 NSCLC): 12.1 µM | TGI (HOP-92 NSCLC): 65.6 µM | GI50 (COLO 205 colon): 18.8 µM | TGI (COLO 205 colon): 34.6 µM | GI50 (SK-OV-3 ovarian): 23.7 µM | TGI (SK-OV-3 ovarian): 64.3 µM | GI50 (OVCAR-4 ovarian): 30 µM | TGI (OVCAR-4 ovarian): > 100 µM | GI50 (A498 renal): 16.3 µM | TGI (A498 renal): 54 µM
